Key:
[1] = test system: triglyceride in liver; experiment: Action for decreasing triglyceride in liver (ethanol-induced); format: in vivo, Sprague Dawley strain female rats; conditions: Rattus norvegicus, po, 24 h, oral 100 mg/kg, 30 min before ethanol 6 g/kg, read-out: % Prevention (of increase in triglyceride content in the liver)
Method: Sprague Dawley strain female rats each weighing 170 - 200 g which had been fasted for 15 hours were divided into groups of 4 rats each. The rats were orally administered a different test compound in a dose of 100 mg/kg, and 30 minutes after the administration, orally administered ethanol in a dose of 6 g/kg. Twenty-four hours after the administration of ethanol, the liver of each rat was taken out and neutral lipid level in the liver was measured in a conventional manner to calculate the ratio of preventing an increase in triglyceride content in the liver. For a control group, ethanol and, for the other control group, a glucose aqueous solution equivalent in calorific value to the same amount of ethanol were used and the same manner as those of test groups, and for the positive control group, commercially available 2-mercaptopropionylglycine was used instead of the test compound.
*The % prevention was calculated by the following

[2] = test system: Pseudomonas aeruginosa Pa-II; experiment: Activity for Protecting from Infection by Bucillus Pyocyaneous, with carbenicillin; format: in vivo; conditions: mouse, test compound (combination arm) 2 mg/head oral; for Number of Survival Animals/Number of Tested Animals: 54 hours
Method: As test animals, ddY strain male mice (5 week old) which were divided into groups of 9 members each were used. Each mouse was intraperitoneally administered with 10^6 Pseudomonas aeruginosa Pa-II, and 1.5 hours after the administeration, subcutaneously administered one shot of carbenicillin, an antibiotic. The test compound, disodium salt of N-2'-carboxyphenyl-4-chloroanthranilic acid, was orally administered once a day in a dose of 2 mg/head one and two days before the inoculation, respectively. The activity of the test compound was evaluated by observing the test animals for 54 hours after the inoculation.

[3] = test system: plaque forming cells (PFC) in the spleen; experiment: Activity for Recovering Immune Depletion by cortisone: plaque forming cells (PFC) in the spleen; format: in vivo, IV CS strain male mice; conditions: cortisone 60 mg/kg i.p. alone
Method: As test animals, IV CS strain male mice (5 week old) were used by dividing them into groups of 5 members each. Each mouse was intraperitoneally administered with cortisone in a dose of 60 mg/kg once a day for 5 days. Three days after the first administration, the sensitization with an antigen, sheep red blood cell (SRBC), was made by injecting the antigen into the mouse through the tail vein. Each mouse was orally administered with the test compound, disodium salt of N-2'-carboxyphenyl-4-chloroanthranilic acid, a day after the sensitization. Five days after the sensitization, the number of plaque forming cells (PFC) in the spleen was measured in a usual manner.

[4] = test system: concentration of BSP in blood; experiment: Bromosulfophthalein (BSP) Test; format: in vivo, Sprague Dawley strain female rats; conditions: rat, oral 100 mg/kg; BSP 28 mg/head i.v.; 30 min after; ** P<0.01
Method: Sprague Dawley strain female rats each weighing 150 - 190 g which had been fasted for 15 hours were divided into groups of 4 rats each. The rats were orally administered a different test compound in a dose of 100 mg/kg, and 60 minutes after the administration, each of the rats was injected through the tail vein with 28 mg/head of BSP. Thirty minutes after the injection, the blood of each rat was sampled from the heart and the concentration of BSP was determined in a conventional colorimetric manner. As control, a physiological saline solution was orally administered instead of the test compound.

[5] = test system: concentration of ICG in the blood; experiment: Indocyanogree (ICG) Test; format: in vivo, Sprague Dawley strain male rats; conditions: rat, oral 100 mg/kg; ICG 2 mg/head i.v.; 15 min after; ** P<0.02
Method: Sprague Dawley strain male rats weighing 180 - 210 g which had been fasted for 15 hours were divided into groups of 4 rats each. The rats were orally administered a different test compound in a dose of 100 mg/kg, and 60 minutes after the administration, each of the rats was injected through the tail vein with 2 mg/head of ICG. Fifteen minutes after the injection, the blood of each rat was sampled from the heart and the concentration of ICG in the blood was determined in a conventional colorimetric manner. As control, a physiological saline solution was used.

[6] = test system: concentration of bilirubin in the blood; experiment: Bilirubin Excretion Activity; format: in vivo, Sprague Dawley strain female rats; conditions: rat, oral 100 mg/kg; bilirubin i.v.; 20 min after; ** P<0.02
Method: Sprague Dawley strain female rats each weighing 160 - 200 g which had been fasted for 15 hours were divided into groups of 6 rats each. The rats were orally administered with a different test compound in a dose of 100 mg/kg, and 60 minutes after the administration, each of the rats was injected through the tail vein with […] of bilirubin. Twenty minutes after the injection, the blood of each rat was sampled from the heart and the concentration of bilirubin in the blood was determined in a conventional manner.
As control, a physiological saline solution was used instead of the test compound.

[7] = test system: plaque forming cells; experiment: Increase in Number of Plaque Forming Cells after sensitization with SRBC (Jerne's plaque method); format: in vivo, Sprague Dawley strain male rats
Method: (§1) Sprague Dawley strain male rats weighing 200 - 220 g which were divided into 7 groups of 5 or 6 rats each were used as test animals.
(§2) The six groups were orally administered by one shot with the test compound, N-2'-carboxyphenyl-4-chloroanthranilic acid in a dose of 100 mg/kg on six different days, a day before the sensitization, on the date, a day after, two days after, three days after and four days after the sensitization with an antigen (SRBC: Sheep red blood cell). The SRBC was intraveneously injected in the rat through the tail vein in an amount of 1 ml as a 2% aqueous suspension. For control groups, a physiological saline solution was used in the same amount and in the same manner as those of the test groups on the day of sensitization.
(§3) Five days after the sensitization, the rats were sacrificed and the spleen of each of the rats was taken out and the blood was sampled.
(§4) The number of plaque forming cells and titers in blood were determined by the Jerne's plaque method and a hemolysing method, respectively.

[8] = test system: antibody in blood; experiment: Titer of Antibody in Blood after sensitization with SRBC (hemolysing method); format: in vivo, Sprague Dawley strain male rats; conditions: administered on the day and a day after the sensitization with SRBC
Method: as §1, §2, §3, §4

[9] = Acute Toxicity; parameters: species or system Wistar-Imamichi strain male and female rats; conditions: rat, in vivo, po, suspension in 5% gum arabi
Method: Acute toxicity of N-2'-carboxyphenyl-4-chloroanthranilic acid was determined using Wistar-Imamichi strain male and female rats (11 week old) as test animals. The test compound was orally administered as a suspension in a 5% gum arabi aqueous solution.

CC(S)C(=O)NCC(=O)O (stereo not shown) [2-mercaptopropionylglycine, reference compound]
inhibition in vivo at 100 mg/kg [1]: 9.3%

CC1(C)S[C@@H]2[C@H](NC(=O)C(C(=O)O)c3ccccc3)C(=O)N2[C@H]1C(=O)O (stereo partly shown) [Carbenicillin, carbenicillin]
Number of Survival Animals/Number of Tested Animals ([2]; Carbenicillin 10 mg/head s.c.): 0/9
Number of Survival Animals/Number of Tested Animals ([2]; Carbenicillin 20 mg/head s.c.): 2/9
Number of Survival Animals/Number of Tested Animals ([2]; Carbenicillin 40 mg/head s.c.): 9/9
ED50 (dose of carbenicillin) ([2]; 10^6 Pseudomonas aeruginosa Pa-II i.p.): 24.1 mg/head

C[C@]12CCC(=O)C=C1CC[C@@H]1[C@@H]2C(=O)C[C@@]2(C)[C@H]1CC[C@]2(O)C(=O)CO [Cortisone, cortisone, reference compound]
number of PFC per spleen vs control without cortisone [3]: reduced to one third

Cc1ccc(C)c(C(=O)O)c1Nc1cc(Cl)ccc1C(=O)O [N-2'-carboxy-3',6'-dimethylphenyl-4-chloroanthranilic acid]
inhibition in vivo at 100 mg/kg [1]: 45.8%

Cc1ccc(Nc2cc(Cl)ccc2C(=O)O)c(C(=O)O)c1 [N-2'-carboxy-4'-methylphenyl-4-chloroanthranilic acid]
inhibition in vivo at 100 mg/kg [1]: 53.2%

O=C(O)c1ccc(Cl)cc1Nc1cc(Cl)ccc1C(=O)O [N-2'-carboxy-5'-chlorophenyl-4-chloroanthranilic acid]
inhibition in vivo at 100 mg/kg [1]: 57.2%

Cc1cccc(C(=O)O)c1Nc1cc(Cl)ccc1C(=O)O [N-2'-carboxy-6'-methylphenyl-4-chloroanthranilic acid]
inhibition in vivo at 100 mg/kg [1]: 25.2%

Cc1c(Cl)ccc(C(=O)O)c1Nc1ccccc1C(=O)O [N-2'-carboxyphenyl-4-chloro-3-methylanthranilic acid]
inhibition in vivo at 100 mg/kg [1]: 40.5%

O=C(O)c1ccccc1Nc1cc(Cl)ccc1C(=O)O [N-2'-carboxyphenyl-4-chloroanthranilic acid]
inhibition in vivo at 100 mg/kg [1]: 67.1%
% Remain of BSP [4]: 17.3±8.4%
% Remain of ICG [5]: 5.1 ± 0.2%
% Remain of Bilirubin [6]: 39.7 ± 13.3%
Number of plaque forming cell/10^6 cells ([7]; 100 mg/kg oral, day 0 based on the sensitization, P<0.01): 193.4 ± 26.6 cell/10^6 cells
Number of plaque forming cell/10^6 cells ([7]; 100 mg/kg oral, day +1 based on the sensitization, P<0.01): 316.8 ± 38.2 cell/10^6 cells
Number of plaque forming cell/10^6 cells ([7]; 100 mg/kg oral, day +2 based on the sensitization): 76.5 ± 16.3 cell/10^6 cells
Number of plaque forming cell/10^6 cells ([7]; 100 mg/kg oral, day +3 based on the sensitization): 101.0 ± 11.2 cell/10^6 cells
Number of plaque forming cell/10^6 cells ([7]; 100 mg/kg oral, day +4 based on the sensitization): 95.5 ± 35.3 cell/10^6 cells
Number of plaque forming cell/10^6 cells ([7]; 100 mg/kg oral, day -1 based on the sensitization, control 49.7 ± 16.0): 93.2 ± 28.6 cell/10^6 cells
increase in number of plaque forming cells relative to control group ([7]; 100 mg/kg oral, maximum vs control): about six times as much as the value of the control group
increase in the number of plaque forming cells ([7]; administered on the date and a day after the sensitization): significant increase
increase in titers in blood [8]: significant increase
LD50 ([9]; female rat): 2600 mg/kg
LD50 ([9]; male rat): 2100 mg/kg

O=C(O)c1ccccc1Nc1ccc(Cl)cc1C(=O)O [N-2'-carboxyphenyl-5-chloroanthranilic acid]
inhibition in vivo at 100 mg/kg [1]: 30%

Cc1ccc(Nc2ccccc2C(=O)O)c(C(=O)O)c1 [N-2'-carboxyphenyl-5-methylanthranilic acid]
inhibition in vivo at 100 mg/kg [1]: 20.1%

Source: patent US4092426A, “Novel aminobenzoic acid derivatives, process for preparing the same and pharmaceutical composition containing the same” (Chugai Seiyaku Kabushiki Kaisha, priority 1975, dated 1978)
